Measurements reported in US20160213647A1, “COMPOSITIONS AND METHODS FOR INHIBITING VIRAL INFECTION” (priority 2015, published 2016).
≈ marks a conversion by molar mass, not a printed value. Like-named read-outs stand apart in the source and are kept apart here.

Key:
[1] = test system: arenavirus Tacaribe (TCRV), strain TRLV11573; experiment: microbe, parasite or virus in culture; type: cell-based, Tacaribe virus; conditions: A549
[2] = test system: influenza A virus (IAV) strain PR8 (H1N1); type: cell-based
BK virus = experiment: microbe, parasite or virus in culture; type: cell-based; conditions: Betapolyomavirus hominis
DENV-4 = experiment: Virus yield reduction assay by qRT-PCR in Vero cells; type: cell-based; conditions: Dengue virus, DENV4, Vero, 48 h, read-out: Antiviral Activity IC50
Vaccinia = experiment: microbe, parasite or virus in culture; type: cell-based; conditions: Orthopoxvirus vaccinia
HIV-1 92HT599 = experiment: microbe, parasite or virus in culture; conditions: Human immunodeficiency virus 1, PBMC
Varicella-zoster virus = experiment: microbe, parasite or virus in culture; type: cell-based; conditions: Human alphaherpesvirus 3
HIV-1 isolate MDR807 = experiment: microbe, parasite or virus in culture; conditions: Human immunodeficiency virus 1, PBMC
JUNV strain XJCl3 [3] = experiment: microbe, parasite or virus in culture; conditions: Mammarenavirus juninense, A549, 48 h
JUNV strain Candid-1 [4] = experiment: microbe, parasite or virus in culture; conditions: Mammarenavirus juninense, Vero, 48 h
JUNV strain IV4454 [5] = experiment: microbe, parasite or virus in culture; conditions: Mammarenavirus juninense, A549, 48 h
[6] = test system: Junin virus strains Candid-1, XJC13 and IV4454; experiment: in vitro; conditions: African green monkey (Vero), human (A549)
in vitro [7] = conditions: African green monkey
CHIKV 899 wild-type = experiment: Chikungunya virus-induced cell death (CPE, MTS/PMS) assay in Vero A cells
Norovirus = experiment: microbe, parasite or virus in culture; type: cell-based
[8] = test system: influenza A virus (IAV) strain PR8 (H1N1); type: cell-based; remark: listed apart in the source
[9] = test system: arenavirus Tacaribe (TCRV), strain TRLV11573; experiment: microbe, parasite or virus in culture; type: cell-based, Tacaribe virus; conditions: Vero
DENV-3 = experiment: Virus yield reduction assay by qRT-PCR in Vero cells; type: cell-based; conditions: Dengue virus, DENV3, Vero, 48 h, read-out: Antiviral Activity IC50
JUNV strain IV4454 [10] = experiment: microbe, parasite or virus in culture; conditions: Mammarenavirus juninense, Vero, 48 h
A/Ca/07/09 (H1N1) = experiment: microbe, parasite or virus in culture; type: cell-based; conditions: Influenza A virus, H1N1, HEK-293T; read-out: EC50
in vitro [11] = conditions: African green monkey, CC50 (Neutral Red)
HIV-2 CBL20 H9 = experiment: microbe, parasite or virus in culture; conditions: Human immunodeficiency virus 2, PBMC
Human cytomegalovirus = experiment: microbe, parasite or virus in culture; type: cell-based; conditions: Human betaherpesvirus 5
JUNV strain Candid-1 [12] = experiment: microbe, parasite or virus in culture; conditions: Mammarenavirus juninense, A549, 48 h
Vero cells = conditions: African green monkey
Rabies Virus = experiment: microbe, parasite or virus in culture; type: cell-based; conditions: Lyssavirus rabies
RHDV isolate Ast/89 = experiment: Treatment of rabbits infected with RHDV; type: in vivo, New Zealand white rabbits
Protocol: Nine-week-old New Zealand white rabbits in a climatized room at 21° C., with a 12 h light cycle in accordance with the experimental design shown in Table 9 and provided standard dry rabbit food and water ad libitum. For survival studies, 14 animals were injected intramuscularly with 2×10^4 hemagglutination units of RHDV isolate Ast/89 and six of them treated with AR-12 (25 mg/Kg body weight) at 0, 12, 24 and 36 hours post infection ([…]). Animals in those groups were left to die spontaneously.

A/Udorn/72 (H3N2) = experiment: microbe, parasite or virus in culture; type: cell-based; conditions: Influenza A virus, H3N2, HEK-293T; read-out: EC50
JUNV strain XJCl3 [13] = experiment: microbe, parasite or virus in culture; conditions: Mammarenavirus juninense, Vero, 48 h
three JUNV strains = experiment: microbe, parasite or virus in culture; conditions: Mammarenavirus juninense, read-out: EC50 values, range depending on the virus strain and the host cell
HIV-1 isolate A17 = experiment: microbe, parasite or virus in culture; conditions: Human immunodeficiency virus 1, PBMC
[14] = 25 mg/Kg ip, after about 36 hours post infection, versus RHDV

Which EC50 [1] does the source give for `NCC(=O)Nc1ccc(-n2nc(C(F)(F)F)cc2-c2ccc3c(ccc4ccccc43)c2)cc1` [AR-12, 2-amino-N-(4-(5-(phenanthren-2-yl)-3-(trifluoromethyl)-1H-pyrazol-1-yl)phenyl)acetamide] here?
Its EC50 is 840 ± 20 nM.

What about the “viral infection (% infection)” value [2] of the same compound?
Its value is “prevents viral infections”.

And the EC50 (BK virus)?
The EC50 was over 2400 nM.

And the EC90 (BK virus)?
The EC90 was over 2400 nM.

And the IC50 (DENV-4)?
Its IC50 is 890 nM.

What about the EC50 (Vaccinia) of the same compound?
Its EC50 is over 2400 nM.

And the EC90 (Vaccinia)?
Its EC90 is over 2400 nM.

What about the IC50 (HIV-1 92HT599) of the same compound?
Its IC50 is 270 nM.

What about the EC50 (Varicella-zoster virus) of the same compound?
The EC50 was 1150 nM.

What about the EC90 (Varicella-zoster virus) of the same compound?
Its EC90 is 1680 nM.

And the IC90 (HIV-1 isolate MDR807)?
The IC90 was 905 nM.

What about the IC90 (HIV-1 isolate MDR807; read-out: IC50) of the same compound?
The IC90 was 2130 nM.

What about the EC50 (JUNV strain XJCl3 [3]) of the same compound?
Its EC50 is 550 ± 50 nM.

What about the EC50 (JUNV strain Candid-1 [4]) of the same compound?
The EC50 was under 150 nM.

And the EC50 (JUNV strain IV4454 [5])?
Its EC50 is 550 ± 50 nM.

And the selectivity ratio [6]?
The selectivity ratio was 35.1 to 129.

What about the CC50 (in vitro [7]; CC50 (Neutral Red)) of the same compound?
Its CC50 is 1.8 µg/mL (≈ 3.91 µM).

What about the CC50 (in vitro [7]; CC50 (neutral red)) of the same compound?
The CC50 was 2.4 µg/mL (≈ 5.21 µM).

What about the CC50 (in vitro [7]; CC50 (visual)) of the same compound?
Its CC50 is 2.8 µg/mL (≈ 6.08 µM).

What about the selectivity index (CHIKV 899 wild-type; CC50/EC50, wild-type ChikV) of the same compound?
The selectivity index was 5.8.

And the EC50 (CHIKV 899 wild-type; Chikungunya virus, Vero, read-out: EC50 WT)?
Its EC50 is 1100 ± 500 nM.

What about the EC50 (Norovirus) of the same compound?
Its EC50 is 718 nM.

And the EC90 (Norovirus)?
The EC90 was 8100 nM.

And the “viral protein production is reduced” value [8]?
The value was “at least 50%”.

What about the EC50 [9] of the same compound?
The EC50 was 350 ± 30 nM.

What about the IC50 (DENV-3) of the same compound?
The IC50 was 600 nM.

And the EC50 (JUNV strain IV4454 [10])?
Its EC50 is 510 ± 50 nM.

And the EC50 (A/Ca/07/09 (H1N1))?
The EC50 was 370 nM.

And the IC50 (HIV-1 91US001)?
The IC50 was 240 nM.

And the CC50 (in vitro [11])?
Its CC50 is 1.3 µg/mL (≈ 2.82 µM).

What about the IC50 (HIV-2 CBL20 H9) of the same compound?
The IC50 was 510 nM.

And the EC50 (Human cytomegalovirus)?
The EC50 was over 2400 nM.

What about the EC90 (Human cytomegalovirus) of the same compound?
The EC90 was over 2400 nM.

And the EC50 (JUNV strain Candid-1 [12])?
The EC50 was 150 ± 20 nM.

And the MNTD (Vero cells)?
Its MNTD is over 10 µM.

And the EC50 (Rabies Virus)?
Its EC50 is 2610 nM.

What about the “survival rates of infected rabbits increased” value (RHDV isolate Ast/89; 25 mg/Kg ip each 12 hours, at least about 24 hours post infection, p<0.05 Fisher test) of the same compound?
Its value is “about 20%”.

What about the “level of marker of liver toxicity ALT (Alanine transaminase)” value (RHDV isolate Ast/89; [14]) of the same compound?
The value was “decreased”.

What about the “level of marker of liver toxicity AST (Aspartate transaminase)” value (RHDV isolate Ast/89; [14]) of the same compound?
The value was “decreased”.

What about the “level of marker of liver toxicity GGT (gamma-glutamyl transferase)” value (RHDV isolate Ast/89; [14]) of the same compound?
Its value is “decreased”.

What about the “level of marker of liver toxicity LDH (lactate dehydrogenase)” value (RHDV isolate Ast/89; [14]) of the same compound?
Its value is “decreased”.

And the EC50 (A/Udorn/72 (H3N2))?
Its EC50 is 330 nM.

What about the EC50 (JUNV strain XJCl3 [13]) of the same compound?
The EC50 was 230 ± 10 nM.

And the IC50 (HIV-2 CDC 310319)?
Its IC50 is 370 nM.

And the EC50 (three JUNV strains)?
The EC50 was 150 to 550 nM.

What about the IC90 (HIV-1 isolate A17) of the same compound?
Its IC90 is 914 nM.

What about the IC90 (HIV-1 isolate A17; read-out: IC50) of the same compound?
Its IC90 is 6640 nM.
